Measured values reported in patent US11498896B2 (The Broad Institute, Inc., priority 2014, dated 2022).

Key:
[1] = system: mice; experiment: Amphetamine induced hyperactivity (AIH); type: in vivo; conditions: in comparison with vehicle
Procedure: Amphetamine Induced Hyperactivity Studies
Amphetamine-induced hyperactivity (AIH) was examined in eight identical open-field chambers (16.5″×16″×12″; AccuScan Instruments, Columbus, Ohio). Activity was detected by infrared beam breaks and recorded automatically by VersaMax software (AccuScan). Daily sessions were automatically binned in 5 minute intervals (VersaDat; AccuSacn) for statistical analysis. AIH was run over three consecutive days as follows:
Day 1: Mice were acclimated to the injection procedure by injecting 30 minutes prior to being placed in the chambers (to match the timing of day 3 compound administration). Mice were then placed into the open-field for 20 minutes and then removed for a saline injection (to match the timing of amphetamine administration on day 3). Mice were placed back into the open-field for an additional 30 minutes, at which point the mice were returned to their home cage.
Day 2 was run identically to Day 1, with the exception that the second day lasted for one hour (20 minutes→injection→40 minutes).
Day 3 was the amphetamine challenge day. Mice were pre-treated with D2 antagonist compounds (compound of Example 90) 30 minutes prior to being placed in the open field. After 20 minutes, mice were removed and challenged with amphetamine, following protocols known to one skilled in the art, for example Jones C. […]

[2] = target: T1, human D2R/β-arrestin (Homo sapiens (Human), UniProt P14416); experiment: Gi/cAMP agonist assay (Lance Ultra cAMP, forskolin); type: cell-based; conditions: CHO-K1 cells expressing human D2R/β-arrestin; agonist mode, 2.5 μM forskolin
Procedure: Eu-cAMP tracer solution (10 μl, PerkinElmer, 360 μl of Tracer in 17.64 ml kit buffer) and ULight-anti-cAMP solution (10 μl, 120 μL antibody in 17.88 ml kit buffer) was then added to each well.

[3] = target: T1, human D2R/β-arrestin; experiment: β-arrestin agonist assay (PathHunter); type: cell-based; conditions: CHO-K1 cells expressing human D2R/β-arrestin; agonist mode
Procedure: The detection reagent (9.6 μL, Buffer:Emerald II:Galactor-Star in a 19:5:1 ratio, i.e., 14.06 mL:3.7 mL:0.74 mL=18.5 mL) was then added to the agonist plates.

[4] = system: striatal D2/D3; experiment: Positron emission tomography with [11C]raclopride; type: in vivo, Male Sprague-Dawley rats; conditions: scans 1 hour after administration; in comparison with clozapine
Procedure: Positron Emission Tomography Studies on Rodents
All animal procedures were performed in accordance with the National Institutes of Health Guide for the Care and Use of Laboratory Animals and were approved by the Massachusetts General Hospital Institutional Animal Care and Use Facility. Male Sprague-Dawley rats (8-14 weeks old, Charles River Labs) were used for the study with animals pair-housed on a diurnal 12:12 light/dark cycle with free access to food and water. […] Respiration of each animal was monitored for the duration of the procedure.
Carbon 11-labeled raclopride ([^11C]RAC) was synthesized from the O-desmethyl RAC precursor and [11C] methyl iodide and subsequently purified by high-performance liquid chromatography as previously described (Farde L, et al. (1985) PNAS, USA 82(11):3863-3867). […] ROI dimensions, placement and striatal D2/D3 binding potential (BPND) were evaluated by graphical analysis using Logan distribution volume ratio (DVR) linearization as previously described (BPND.=DVR-1; Alexoff D, et al. (2002) J Nuc Med 44(5): 815-822; Logan J, et al. (1996) J Cerebral Blood Flow and Metabolism 16(5):[…]).

T1 sequence (P14416 whole entry): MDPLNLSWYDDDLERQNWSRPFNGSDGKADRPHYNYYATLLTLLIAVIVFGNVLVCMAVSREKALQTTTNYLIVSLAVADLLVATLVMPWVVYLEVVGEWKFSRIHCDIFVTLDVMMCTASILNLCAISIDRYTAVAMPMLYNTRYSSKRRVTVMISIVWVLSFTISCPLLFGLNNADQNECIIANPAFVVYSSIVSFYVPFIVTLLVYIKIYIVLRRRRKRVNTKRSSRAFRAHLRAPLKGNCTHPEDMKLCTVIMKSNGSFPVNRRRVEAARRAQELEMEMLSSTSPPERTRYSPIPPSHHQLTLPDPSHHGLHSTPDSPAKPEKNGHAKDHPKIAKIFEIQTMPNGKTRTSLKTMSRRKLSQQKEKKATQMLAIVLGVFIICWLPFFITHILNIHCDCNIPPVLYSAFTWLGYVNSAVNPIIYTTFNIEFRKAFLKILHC

- EC50 [2]: < 100 nM
- EC50 [3]: 1000 to 10000 nM
SMILES: CC1(Oc2ccc(Cl)cc2)CCN(CCOc2ccccc2C(F)(F)F)CC1 [Compound 90, 4-(4-Chlorophenoxy)-4-methyl-1-(2-(2-(trifluoromethyl)phenoxy)ethyl) piperidine]
- attenuation of amphetamine induced hyperactivity (AIH) [1]: dose-dependently attenuates AIH in mice and shows efficacy at 30 mg/kg
- occupancy in the striatum ([11C]Raclopride PET) [4]: continued high occupancy in the striatum
